Assay results from PubChem BioAssay (NCI).
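96-well plates; 48 h exposure; 5 concentrations. Endpoints by linear interpolation between flanking doses. Not reached: highest tested concentration assigned. GI50 = concentration required for 50% inhibition of growth. Definition used: TGI = concentration required for complete inhibition of growth.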

Columns and labels:
Test in all cases: NCI anticancer screen, dose series, 48 h
HOP-92 NSCLC = test system: HOP-92 NSCLC
CAKI-1 renal = test system: CAKI-1 renal
RPMI-8226 leukemia = test system: RPMI-8226 leukemia
OVCAR-5 ovarian = test system: OVCAR-5 ovarian
BT-549 breast = test system: BT-549 breast
PC-3 prostate = test system: PC-3 prostate
SK-MEL-2 melanoma = test system: SK-MEL-2 melanoma
A549 NSCLC = test system: A549 NSCLC
MCF7 breast = test system: MCF7 breast
OVCAR-8 ovarian = test system: OVCAR-8 ovarian

| SMILES | GI50 (HOP-92 NSCLC) | TGI (HOP-92 NSCLC) | GI50 (CAKI-1 renal) | TGI (CAKI-1 renal) | GI50 (RPMI-8226 leukemia) | TGI (RPMI-8226 leukemia) | GI50 (OVCAR-5 ovarian) | TGI (OVCAR-5 ovarian) | GI50 (BT-549 breast) | TGI (BT-549 breast) | GI50 (PC-3 prostate) | TGI (PC-3 prostate) | GI50 (SK-MEL-2 melanoma) | TGI (SK-MEL-2 melanoma) | GI50 (A549 NSCLC) | TGI (A549 NSCLC) | GI50 (MCF7 breast) | TGI (MCF7 breast) | GI50 (OVCAR-8 ovarian) | TGI (OVCAR-8 ovarian) |
| --- | --- | --- | --- | --- | --- | --- | --- | --- | --- | --- | --- | --- | --- | --- | --- | --- | --- | --- | --- | --- |
| O=C(CCN1CCCC1)Nc1ccc2c(Nc3ccc(Br)cc3)c3ccccc3nc2c1 | 1.31 µM | 2.71 µM | 1.53 µM | 2.87 µM | 1.73 µM | 6.07 µM | 1.63 µM | 3.03 µM | 1.44 µM | 3 µM | 1.4 µM | 3.04 µM | 1.98 µM | 3.76 µM | – | – | – | – | – | – |
| CN(C)c1ccc(/C=N/n2c(CCCCc3n[nH]c(=S)n3/N=C/c3ccc(N(C)C)cc3)n[nH]c2=S)cc1 | > 100 µM | > 100 µM | > 100 µM | > 100 µM | > 100 µM | > 100 µM | > 100 µM | > 100 µM | – | – | > 100 µM | > 100 µM | > 100 µM | > 100 µM | > 100 µM | > 100 µM | > 100 µM | > 100 µM | > 100 µM | > 100 µM |
| CC[C@@]1(O)C(=O)OCc2c1cc1n(c2=O)Cc2cc3cccc(N)c3nc2-1 | > 100 µM | > 100 µM | – | – | > 100 µM | > 100 µM | 25.8 µM | > 100 µM | – | – | – | – | 29.7 µM | 65.6 µM | 7.32 µM | > 100 µM | – | – | 12.1 µM | > 100 µM |
| CC(/C=C1\CCC(CN(C)C)C1=O)c1cccc(Br)c1 (stereo unspecified) | – | 33.5 µM | – | 21.1 µM | – | 6.08 µM | – | 43.8 µM | – | – | – | – | – | 30.5 µM | – | > 96.2 µM | – | – | – | 36.8 µM |
| CCCCCCCCCCCCCP(=O)(OC)OC | – | 35 µM | – | 32.7 µM | – | 50.7 µM | – | 30.6 µM | – | – | – | – | – | 31.3 µM | – | 36.9 µM | – | – | – | 31.9 µM |
| CCCCCC1CC=CC(NC(=O)OCc2ccccc2)C1/C=C/CCCC1OCCO1 (stereo unspecified) | – | > 100 µM | – | > 100 µM | – | > 100 µM | – | > 100 µM | – | – | – | – | – | > 100 µM | – | > 100 µM | – | – | – | > 100 µM |
| COC(=O)/C=C(C)/C=C/c1c(C)c(C(C)=O)c(C)n1C | – | 92.8 µM | – | > 100 µM | – | > 100 µM | – | > 100 µM | – | – | – | – | – | – | – | > 100 µM | – | – | – | > 100 µM |
| O=C(O)CC(S)C(=O)O.[Li+].[Sb] (stereo unspecified) | > 100 µM | > 100 µM | > 100 µM | > 100 µM | 63.3 µM | > 100 µM | > 100 µM | > 100 µM | > 100 µM | > 100 µM | > 100 µM | > 100 µM | 40.5 µM | > 100 µM | > 100 µM | > 100 µM | – | – | > 100 µM | > 100 µM |
| CC(=O)CCn1[nH]c(=O)c(Cl)c(Cl)c1=O | – | > 100 µM | – | 28.8 µM | – | > 100 µM | – | > 100 µM | – | – | – | – | – | > 100 µM | – | > 100 µM | – | – | – | > 100 µM |
